Here are results for two sequences from patent publication US10793599B2, “MPHOSPH1-derived peptide, and vaccine including same” (OncoTherapy Science, Inc., priority 2015, dated 2020).

Assay [1] relates to peptide-pulsed C1R-A33. Description: In vitro CTL induction, IFN-gamma ELISPOT assay (HLA-A*33:03). It counts as cell-based, human. The note with it: CD8 positive T cells of HLA-A*33:03-positive donors after three stimulations with peptide-pulsed DCs; against peptide-pulsed C1R-A33; listed as MPHOSPH1-A33-9-608. The method, then: (§1) Monocyte-derived dendritic cells (DCs) were used as the antigen-presenting cell to induce a specific cytotoxic T lymphocyte (CTL) response against peptides presented on human leukocyte antigens (HLAs). As already reported in literatures, DCs were generated in vitro (Nakahara S et al., Cancer Res 2003, 63(14): 4112-8). Specifically, peripheral-blood mononuclear cells (PBMCs) collected from healthy volunteers (HLA-A*33:03-positive) with the Ficoll-Paque plus solution (Pharmacia) were seeded in plastic tissue culture dishes (Corning) to let the monocytes in the PBMCs adhere to the dishes. This was cultured in the presence of 1000 IU/ml granulocyte macrophage colony-stimulating factor (R&D System) and 1000 IU/ml interleukin (IL)-4 (R&D System) for seven days. An AIM-V medium (Invitrogen) containing 5% inactivated AB-type serum (ABS) was used as the medium. DCs that were induced to differentiate from monocytes using the cytokines were pulsed with 20 micro-g/ml of each synthesized peptide (37 degrees C., three hours). Peptide pulsing was carried out in an AIM-V medium containing 3 micro-g/ml beta 2-microglobulin. These peptide-pulsed DCs were inactivated by X-ray irradiation (20 Gy), mixed in a 1:20 ratio with autologous CD8 positive T cells obtained by positive selection using the CD8 Positive Isolation Kit (Invitrogen) (1.5×10^4 DCs and 3×10^5 CD8 positive T cells), and cultured in a 48-well plate (Corning). Each well contained 0.5 ml of the 5% ABS/AIM-V medium, and IL-7 (R&D System) was added there (final concentration: 10 ng/ml). Two days after the start of the culture, IL-2 (Novartis) was added (final concentration: 20 IU/ml). On day 7 and day 14 of culture, the CD8 positive T cells were further stimulated with peptide-pulsed DCs. The DCs were prepared at the time of use by the same method as above. After day 21 (after three DC stimulations), IFN-gamma production against the peptide-pulsed C1R-A33 was confirmed using human interferon (IFN)-gamma enzyme-linked immunospot (ELISPOT) assay (Tanaka H et al., Br J Cancer 2001, 84(1): 94-9; Umano Y et al., Br J Cancer 2001, 84(8): 1052-7: Uchida N et al., Clin Cancer Res 2004, 10(24): 8577-86; Suda T et al., Cancer Sci 2006, 97(5): 411-9; Watanabe T et al., Cancer Sci 2005, 96(8): 498-506).
(§2) Peptide-pulsed C1R-A33 (1×10^4 cells/well) was prepared as the target cell. The IFN-gamma ELISPOT assay and IFN-gamma ELISA assay were performed according to the assay kit manufacturer's manual.

Assay [2] deals with peptide-pulsed C1R-A33. The assay can be described thus: IFN-gamma ELISA of CTL lines and CTL clones (HLA-A*33:03). Type of assay: cell-based, human. The note with it: listed as MPHOSPH1-A33-9-608. The method, then: (§3) CTLs were propagated using methods similar to those reported by Riddell et al. (Walter E A et al., N Engl J Med 1995, 333(16): 1038-44; Riddell S R et al., Nat Med 1996, 2(2): 216-23). The CTLs were cultured in 25 ml 5% ABS/AIM-V medium together with two types of Mitomycin C-treated human B lymphoblastoid cell lines (5×10^6 cells/25 ml medium each) and an anti-CD3 antibody (final concentration: 40 ng/ml). On the day after beginning of the culturing, IL-2 (final concentration: 120 IU/ml) was added to the culture. On days 5, 8 and 11, the medium was changed to a 5% ABS/AIM-V medium containing IL-2 (final concentration: 30 IU/ml) (Tanaka H et al., Br J Cancer 2001, 84(1): 94-9; Umano Y et al., Br J Cancer 2001, 84(8): 1052-7; Uchida N et al., Clin Cancer Res 2004, 10(24): 8577-86; Suda T et al., Cancer Sci 2006, 97(5): 411-9; Watanabe T et al., Cancer Sci 2005, 96(8): 498-506).
After induction of CTLs in vitro, the CTLs were seeded onto 96 round-bottomed microtiter plates (Nalge Nunc International) at 1 cell/well or 10 cells/well. The CTLs were cultured with two types of Mitomycin C-treated human B lymphoblastoid cell lines (1×10^4 cells/well each) in a total of 150 micro-l/well 5% ABS/AIM-V medium with an anti-CD3 antibody (final concentration: 30 ng/ml) and IL-2 (final concentration: 125 IU/ml). Ten days later, 50 micro-l 5% ABS/AIM-V medium containing 500 IU/ml IL-2 was added to the culture.
as §2
Background: ELISA stands for enzyme-linked immunosorbent assay.

Assay [3] has as its system COS7 cells expressing MPHOSPH1 and HLA-A*33:03. The assay can be described thus: IFN-gamma production of CTL clone against target cells expressing MPHOSPH1 and HLA-A*33:03. It counts as cell-based, African green monkey. The method, then:
as §2
A cDNA encoding the MPHOSPH1 or HLA-A*33:03 gene was amplified by PCR. The PCR-amplified product was each incorporated into an expression vector. Either or both of the MPHOSPH1 gene-expressing vector and the HLA-A*33:03 gene-expressing vector were introduced into COS7, which is a cell line negative for HLA, using Lipofectamine 2000 (Invitrogen). On the day after gene introduction, COS7 cells were detached and harvested using versene (Invitrogen), and used as the target cell for confirmation of IFN-gamma production (5×10^4 cells/well).

For assay [4], the system named is peptide-pulsed C1R-A11. Description: In vitro CTL induction, IFN-gamma ELISPOT assay (HLA-A*11:01). Type of assay: cell-based, human. The settings on record: CD8 positive T cells of HLA-A*11:01-positive donors after three stimulations with peptide-pulsed DCs; against peptide-pulsed C1R-A11; listed as MPHOSPH1-A11-10-1546. The protocol:
as §1, with “(HLA-A*11:01-positive)” for “(HLA-A*33:03-positive)”, “thereto” for “there”, “C1R-A11” for “C1R-A33”, “1052-7;” for “1052-7:”
(§4) Peptide-pulsed C1R-A11 (1×10^4 cells/well) was prepared as the target cell. The IFN-gamma ELISPOT assay and IFN-gamma ELISA were performed according to the assay kit manufacturer's manual.

Assay [5] has as its system peptide-pulsed C1R-A11. The assay can be described thus: IFN-gamma ELISA of CTL lines and CTL clones (HLA-A*11:01). Type of assay: cell-based, human. The note with it: listed as MPHOSPH1-A11-10-1546. The protocol: as §3
After induction of CTLs in vitro, the CTLs were seeded onto 96 round-bottomed microtiter plates (Nalge Nunc International) at 1 cell/well or 10 cells/well. The CTLs were cultured with two types of Mitomycin C-treated human B lymphoblastoid cell lines (1×10^4 cells/well each) in a total of 150 micro-1/well 5% ABS/AIM-V medium with an anti-CD3 antibody (final concentration: 30 ng/ml) and IL-2 (final concentration: 125 IU/ml). Ten days later, 50 micro-15% ABS/AIM-V medium containing 500 IU/ml IL-2 was added to the culture. […].
as §4

Assay [6] relates to COS7 cells expressing MPHOSPH1 and HLA-A*11:01. Description: IFN-gamma production of CTL clone against target cells expressing MPHOSPH1 and HLA-A*11:01. Type of assay: cell-based, African green monkey. The method, then:
as §4
A cDNA encoding the MPHOSPH1 or HLA-A*11:01 gene was amplified by PCR. The PCR-amplified product was each incorporated into an expression vector. Either or both of the MPHOSPH1 gene-expressing vector and the HLA-A*11:01 gene-expressing vector were introduced into COS7, which is a cell line negative for HLA, using Lipofectamine 2000 (Invitrogen) following the manufacturer's recommended protocol. On the day after gene introduction, COS7 cells were detached and harvested using versene (Invitrogen), and used as the target cell for confirmation of IFN-gamma production (5×10^4 cells/well).

Entries after “also recorded” stand apart in the source; their conditions may differ.

Take “EFTQYWAQR (a peptide derived from MPHOSPH1) [SEQ ID NO: 118]”: the “peptide-specific IFN-gamma production (ELISPOT)” value in assay [1] is recorded as “Peptide-specific IFN-gamma production was observed”. Also, the “peptide-specific IFN-gamma production of CTL clone (ELISA)” value in assay [2] (CTL clone by limiting dilution, against C1R-A33 pulsed with the peptide) is given as “showed a peptide-specific IFN-gamma production”. In addition, the “IFN-gamma production by CTL line (ELISA)” value in assay [2] (CTL line against C1R-A33 pulsed with the peptide) is reported as “CTL lines that produce IFN-gamma in a peptide-specific manner were established; also recorded: observed”. The “IFN-gamma production of peptide-specific CTL clone” value in assay [3] (against COS7 cells expressing both MPHOSPH1 and HLA-A*33:03) was “showed IFN-gamma production”; in assay [3] (against negative control COS7 cells expressing either one of MPHOSPH1 and HLA-A*33:03, listed as MPHOSPH1-A33-9-608) it was “a significant IFN-gamma production was not shown; also recorded: a significant IFN-gamma production was not observed”.

In the case of “STSFEISRNK (a peptide derived from MPHOSPH1) [SEQ ID NO: 52]”, the “peptide-specific IFN-gamma production (ELISPOT)” value in assay [4] was “Peptide-specific IFN-gamma production was observed”. Further, the “peptide-specific IFN-gamma production of CTL clone (ELISA)” value in assay [5] (CTL clone by limiting dilution, against C1R-A11 pulsed with the peptide) is on record as “showed a peptide-specific IFN-gamma production”. Further, the “IFN-gamma production by CTL line (ELISA)” value in assay [5] (CTL line against C1R-A11 pulsed with the peptide) was “CTL lines that produce IFN-gamma in a peptide-specific manner were established; also recorded: observed”. Further, the “IFN-gamma production of peptide-specific CTL clone” value in assay [6] (against COS7 cells expressing both MPHOSPH1 and HLA-A*11:01) is “showed IFN-gamma production”; in assay [6] (against negative control COS7 cells expressing either one of MPHOSPH1 and HLA-A*11:01, listed as MPHOSPH1-A11-10-1546) it was “a significant IFN-gamma production was not shown; also recorded: a significant IFN-gamma production was not observed”.
